Measurements from US10526316B2, “Quinoxaline and pyridopyrazine derivatives as PI3Kβ inhibitors” (Janssen Pharmaceutica NV, priority 2015, dated 2020).
Where two headings read alike, the source gives them in different places.

What was measured:
[1] = target: T1, PI3Kβ (Homo sapiens, UniProt P42338); assay: Enzyme binding assay (KINOMEscan, DiscoveRx); details: PIK3Cβ_h, read-out: Kd PIK3Cβ_h
T1 construct: purchased DiscoveRx Corporation, San Diego (contract service, KINOMEscan)
Summary of the method: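 KINOMEscan binding platform; read-out is the inhibitor binding constant Kd (nM).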

[2] = target: T2, PI3Kδ (Homo sapiens, UniProt O00329); assay: Enzyme binding assay (KINOMEscan, DiscoveRx); details: PIK3Cδ_h
T2 construct: purchased DiscoveRx Corporation, San Diego (contract service, KINOMEscan)
T2 sequence (O00329 1-1044): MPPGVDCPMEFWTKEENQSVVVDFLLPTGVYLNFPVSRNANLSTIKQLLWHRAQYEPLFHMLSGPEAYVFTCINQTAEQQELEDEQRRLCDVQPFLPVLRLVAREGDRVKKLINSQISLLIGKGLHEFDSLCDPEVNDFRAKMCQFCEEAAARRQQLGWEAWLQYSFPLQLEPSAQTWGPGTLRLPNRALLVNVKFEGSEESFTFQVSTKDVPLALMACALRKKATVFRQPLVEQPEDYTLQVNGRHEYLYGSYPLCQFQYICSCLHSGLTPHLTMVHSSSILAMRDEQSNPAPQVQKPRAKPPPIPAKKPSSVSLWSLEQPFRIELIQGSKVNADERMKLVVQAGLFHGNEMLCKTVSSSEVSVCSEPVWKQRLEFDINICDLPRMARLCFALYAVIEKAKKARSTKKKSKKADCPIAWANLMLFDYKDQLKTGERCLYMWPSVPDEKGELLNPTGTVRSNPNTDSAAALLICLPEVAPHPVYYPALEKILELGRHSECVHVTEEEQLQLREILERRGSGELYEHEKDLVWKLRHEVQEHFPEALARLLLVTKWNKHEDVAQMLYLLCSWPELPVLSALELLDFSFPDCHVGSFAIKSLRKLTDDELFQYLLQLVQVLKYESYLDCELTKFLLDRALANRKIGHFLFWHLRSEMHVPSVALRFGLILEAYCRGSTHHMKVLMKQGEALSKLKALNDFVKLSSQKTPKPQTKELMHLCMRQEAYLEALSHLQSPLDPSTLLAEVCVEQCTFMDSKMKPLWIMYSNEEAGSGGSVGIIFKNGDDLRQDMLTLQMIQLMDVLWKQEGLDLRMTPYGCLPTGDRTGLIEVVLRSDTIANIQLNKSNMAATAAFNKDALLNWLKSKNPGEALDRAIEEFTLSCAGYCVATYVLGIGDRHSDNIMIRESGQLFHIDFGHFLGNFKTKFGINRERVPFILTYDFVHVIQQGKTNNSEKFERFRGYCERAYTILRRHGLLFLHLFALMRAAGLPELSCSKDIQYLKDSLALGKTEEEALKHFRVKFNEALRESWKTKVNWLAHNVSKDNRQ
Summary of the method: (§1)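 KINOMEscan readout; values are kinase binding affinities.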

[3] = target: T3, kinase enzymes (Homo sapiens, UniProt P42336); assay: Enzyme binding assay (KINOMEscan, DiscoveRx), further kinases of Table A; details: PIK3Cα_h
T3 construct: purchased DiscoveRx Corporation, San Diego (contract service, KINOMEscan)
Summary of the method: as §1

[4] = target: T4, kinase enzymes (Homo sapiens, UniProt P42345); assay: as above; details: MTOR_h
T4 construct: purchased DiscoveRx Corporation, San Diego (contract service, KINOMEscan)
Summary of the method: as §1

[5] = target: T5, kinase enzymes (Homo sapiens, UniProt P48736); assay: as above; details: PIK3Cγ_h
T5 construct: purchased DiscoveRx Corporation, San Diego (contract service, KINOMEscan)
Summary of the method: as §1

[6] = system: Akt phosphorylated at Ser473 in PC-3 cells; assay: Cellular assay: phosphorylation of Akt at Ser473 in PC-3 cells (MSD ELISA); format: cell-based; details: PC-3 cells, 60 min compound incubation, MSD ELISA, read-out: IC50 pAkt_S473
Summary of the method: (§2)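 Electrochemiluminescent sandwich ELISA read-out: phospho-specific capture (Ser473 or Thr308), Sulfo-tag anti-total Akt detection, signal proportional to phospho-Akt. Cells treated 60 min at 37° C with compound, DMSO 0.3%. IC50 fitted from five concentrations.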

[7] = system: Akt phosphorylated at Thr308 in PC-3 cells; assay: Cellular assay: phosphorylation of Akt at Thr308 in PC-3 cells (MSD ELISA); format: cell-based; details: PC-3 cells, 60 min compound incubation, MSD ELISA, read-out: IC50 pAkt_Thr308
Summary of the method: as §2

T1 sequence (P42338 whole entry): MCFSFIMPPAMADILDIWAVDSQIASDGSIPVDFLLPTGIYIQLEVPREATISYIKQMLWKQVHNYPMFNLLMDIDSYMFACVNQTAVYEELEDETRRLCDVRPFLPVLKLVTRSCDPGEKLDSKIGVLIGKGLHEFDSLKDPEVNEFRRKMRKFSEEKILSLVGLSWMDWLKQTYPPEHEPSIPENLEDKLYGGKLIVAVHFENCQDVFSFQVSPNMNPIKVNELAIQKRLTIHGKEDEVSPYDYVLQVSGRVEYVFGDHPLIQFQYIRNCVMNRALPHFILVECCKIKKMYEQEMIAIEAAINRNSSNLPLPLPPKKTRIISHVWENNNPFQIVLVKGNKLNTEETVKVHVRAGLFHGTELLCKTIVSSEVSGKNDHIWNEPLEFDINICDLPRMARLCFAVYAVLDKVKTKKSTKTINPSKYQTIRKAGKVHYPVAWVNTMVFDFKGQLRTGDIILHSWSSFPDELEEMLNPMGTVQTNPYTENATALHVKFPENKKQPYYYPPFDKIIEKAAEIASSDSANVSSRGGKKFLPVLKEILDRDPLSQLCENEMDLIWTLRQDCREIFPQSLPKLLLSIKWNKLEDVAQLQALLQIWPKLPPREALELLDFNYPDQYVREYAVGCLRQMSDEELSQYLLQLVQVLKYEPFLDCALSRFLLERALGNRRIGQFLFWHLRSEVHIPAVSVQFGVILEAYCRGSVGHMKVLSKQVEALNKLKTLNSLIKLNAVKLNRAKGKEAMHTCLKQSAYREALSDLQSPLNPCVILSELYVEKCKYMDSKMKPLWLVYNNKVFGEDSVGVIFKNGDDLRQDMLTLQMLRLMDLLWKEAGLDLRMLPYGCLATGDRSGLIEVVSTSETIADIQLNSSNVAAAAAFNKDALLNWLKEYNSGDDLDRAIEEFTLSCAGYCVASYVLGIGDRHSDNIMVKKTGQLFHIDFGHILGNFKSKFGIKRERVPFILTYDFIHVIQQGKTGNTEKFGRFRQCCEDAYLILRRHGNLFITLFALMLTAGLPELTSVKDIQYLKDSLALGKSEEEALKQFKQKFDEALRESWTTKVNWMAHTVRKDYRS
T5 sequence (P48736 whole entry): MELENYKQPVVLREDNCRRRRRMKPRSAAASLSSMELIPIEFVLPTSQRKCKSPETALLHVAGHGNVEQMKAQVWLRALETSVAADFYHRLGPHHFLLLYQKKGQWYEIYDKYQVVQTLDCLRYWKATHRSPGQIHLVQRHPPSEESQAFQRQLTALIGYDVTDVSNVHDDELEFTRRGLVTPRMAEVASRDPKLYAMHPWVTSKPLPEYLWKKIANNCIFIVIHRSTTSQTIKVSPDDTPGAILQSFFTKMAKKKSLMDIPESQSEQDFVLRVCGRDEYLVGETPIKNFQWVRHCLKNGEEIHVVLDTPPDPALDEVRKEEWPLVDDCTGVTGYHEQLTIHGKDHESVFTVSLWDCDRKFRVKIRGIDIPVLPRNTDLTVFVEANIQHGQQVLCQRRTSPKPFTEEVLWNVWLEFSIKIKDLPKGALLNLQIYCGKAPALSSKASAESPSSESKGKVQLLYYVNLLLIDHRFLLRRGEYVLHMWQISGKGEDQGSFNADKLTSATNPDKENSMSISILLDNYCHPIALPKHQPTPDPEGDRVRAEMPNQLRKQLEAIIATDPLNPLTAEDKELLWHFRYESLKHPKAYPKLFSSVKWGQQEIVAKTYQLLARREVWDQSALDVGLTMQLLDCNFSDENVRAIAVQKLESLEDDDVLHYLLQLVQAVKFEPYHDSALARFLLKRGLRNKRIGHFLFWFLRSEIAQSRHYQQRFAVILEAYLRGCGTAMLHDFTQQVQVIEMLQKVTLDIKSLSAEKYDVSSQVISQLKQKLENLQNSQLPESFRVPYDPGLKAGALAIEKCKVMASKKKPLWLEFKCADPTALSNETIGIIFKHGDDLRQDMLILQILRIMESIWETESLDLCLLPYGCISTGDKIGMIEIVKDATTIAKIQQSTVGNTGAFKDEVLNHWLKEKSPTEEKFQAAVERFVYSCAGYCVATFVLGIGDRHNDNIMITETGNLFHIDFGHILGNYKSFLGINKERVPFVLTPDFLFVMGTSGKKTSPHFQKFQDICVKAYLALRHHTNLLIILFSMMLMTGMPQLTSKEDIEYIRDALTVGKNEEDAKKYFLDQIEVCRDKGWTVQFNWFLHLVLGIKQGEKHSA
T3 sequence (P42336 whole entry): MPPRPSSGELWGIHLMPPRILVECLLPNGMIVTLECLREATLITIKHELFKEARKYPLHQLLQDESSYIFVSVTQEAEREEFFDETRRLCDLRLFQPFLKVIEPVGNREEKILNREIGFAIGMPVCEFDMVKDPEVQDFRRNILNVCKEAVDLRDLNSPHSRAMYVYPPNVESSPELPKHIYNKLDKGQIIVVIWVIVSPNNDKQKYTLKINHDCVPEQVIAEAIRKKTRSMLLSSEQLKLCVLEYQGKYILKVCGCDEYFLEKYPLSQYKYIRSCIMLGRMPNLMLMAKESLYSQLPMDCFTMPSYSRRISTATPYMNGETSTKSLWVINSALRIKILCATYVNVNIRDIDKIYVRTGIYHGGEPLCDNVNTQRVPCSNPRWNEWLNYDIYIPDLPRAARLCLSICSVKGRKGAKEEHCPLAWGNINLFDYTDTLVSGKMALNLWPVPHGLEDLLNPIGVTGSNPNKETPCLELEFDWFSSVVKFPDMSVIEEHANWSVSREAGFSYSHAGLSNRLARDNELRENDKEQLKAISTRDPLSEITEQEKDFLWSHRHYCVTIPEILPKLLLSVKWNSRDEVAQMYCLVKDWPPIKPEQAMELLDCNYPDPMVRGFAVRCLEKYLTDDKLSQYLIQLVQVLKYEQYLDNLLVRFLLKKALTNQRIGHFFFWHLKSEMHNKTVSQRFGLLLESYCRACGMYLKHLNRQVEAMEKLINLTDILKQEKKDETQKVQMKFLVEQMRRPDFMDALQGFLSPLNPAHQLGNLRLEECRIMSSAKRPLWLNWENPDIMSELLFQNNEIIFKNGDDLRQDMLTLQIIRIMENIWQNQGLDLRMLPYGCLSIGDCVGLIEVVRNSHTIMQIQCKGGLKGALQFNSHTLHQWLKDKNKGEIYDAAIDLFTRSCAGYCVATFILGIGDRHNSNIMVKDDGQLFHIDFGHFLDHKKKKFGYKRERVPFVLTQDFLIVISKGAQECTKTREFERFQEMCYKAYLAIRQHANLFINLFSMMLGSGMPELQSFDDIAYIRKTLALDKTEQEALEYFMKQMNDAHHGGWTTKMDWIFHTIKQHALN

Compound	Kd [1] [nM]	Kd [2] [nM]	Kd [3] [nM]	Kd [4] [nM]	Kd [5] [nM]	IC50 [6] [nM]	IC50 [7] [nM]	melting point [°C]	IC50 ([6]; Homo sapiens, PC-3, 1 h) [nM]	IC50 ([7]; Homo sapiens, PC-3, 1 h) [nM]
CC(Oc1cc(F)cc(F)c1)c1cc(C(=O)N(C)C)cc2ncc(C3=CCOCC3)nc12 (single isomer, unassigned) [Compound 403b]	3160	17400	> 30200	> 30200	> 30200	> 513	> 513	54	–	–
CNCCNC(=O)c1cc(C(C)Nc2cc(F)cc(F)c2)c2nc(N3CCOCC3)cnc2c1 (single isomer, unassigned) [Compound 406a]	0.1	39	372	22900	1050	8	4	80	–	–
O=C(c1cc(C2CCCN2c2cc(F)cc(F)c2)c2nc(N3CCOCC3)cnc2c1)N1CCC1 (single isomer, unassigned) [Compound 37]	20	2880	6170	> 30200	> 30200	200	126	276	–	–
COC(=O)c1cc(C(C)Oc2ccc(F)c(F)c2)c2nc(N3CCOCC3)cnc2c1 (stereo not shown) [Compound 209]	316	11500	> 30200	> 30200	17000	–	–	183	> 513	> 513
CC(c1cc(C(=O)N2CCOCC2)cc2ncc(N3CCOCC3)nc12)N(C)c1cccc(F)c1 (stereo not shown) [Compound 105]	8	871	3890	> 30200	28200	–	–	161	302	138
CC(Nc1cc(F)cc(Cl)c1)c1cc(C(=O)N2CCOCC2)cc2ncc(N3CCOCC3)nc12 (stereo not shown) [Compound 146]	2	933	1910	> 30200	8130	–	–	80	83	38
CC(Nc1cc(F)cc(F)c1)c1cc(Br)cc2ncc(N3CCOCC3)nc12 (stereo not shown) [Compound 167]	26	7760	17400	> 30200	12900	–	–	80	> 513	~427
CN(CCO)Cc1cc(C2CCCN2c2cc(F)cc(F)c2)c2nc(N3CCOCC3)cnc2c1 (stereo not shown) [Compound 101]	0.4	40	263	> 30200	398	–	–	80	21	14
CNCCNC(=O)c1cc(C2CCCN2c2cc(F)cc(F)c2)c2nc(N3CCOCC3)cnc2c1 (single isomer, unassigned) [Compound 17]	0.1	3	25	12300	107	–	–	170	~3	1
CN[C@H]1CCN(C(=O)c2cc(C(C)Nc3ccc(F)c(F)c3)c3nc(N4CCOCC4)cnc3c2)C1 (mixture of isomers) [Compound 365]	1	117	2090	> 30200	2880	–	–	80	20	13
O=C(c1cc(C2CCCN2c2cc(F)cc(F)c2)c2nc(N3CCOCC3)cnc2c1)N1CCC1 (single isomer, unassigned) [Compound 33]	1	47	58	> 30200	389	3	4	280	–	–
